Consider seven compounds from patent US10344060B2 (priority 2013, dated 2019).

“Also recorded” adds a separate entry of the source. Like-named read-outs stand apart in the source and are kept apart here.

The conditions of data set [1]: rat plasma, 37° C., incubation time 0 hr (normalization point).
Data set [2] deals with mouse saphenous nerve C-fibers.
Data set [3] concerns the target Nav1.7 (Rattus norvegicus, UniProt O08562). The following applies: read-out: TTX IC50; cited from earlier work.
For data set [4], the target named is Nav1.6 (Rattus norvegicus, UniProt O88420). As to conditions: read-out: TTX IC50; cited from earlier work.
In data set [5] the target is Nav1.4 (Rattus norvegicus, UniProt P15390). The following applies: read-out: TTX IC50; cited from earlier work.
The target of data set [6] is Nav1.3 (Rattus norvegicus, UniProt P08104). As to conditions: read-out: TTX IC50; cited from earlier work.
Data set [7] has as its target Nav1.8 (Rattus norvegicus, UniProt Q62968). As to conditions: read-out: TTX IC50; cited from earlier work.
Data set [8] concerns TTX-sensitive Nav channels in mouse DRG neuron.
For data set [9] the following is noted: cyno plasma, 37° C., incubation 0 hr (normalisation point).
The conditions of data set [10]: mouse plasma, 37° C., incubation 0 hr (normalisation point).
For data set [11], the target named is T1, hNav1.7 (Homo sapiens, UniProt Q15858). Kind of data set: cell-based. In kind it is cell-based. As to conditions: Table 15; read-out: PX hNav1.7 Tonic IC50.
T1 sequence (Q15858 whole entry): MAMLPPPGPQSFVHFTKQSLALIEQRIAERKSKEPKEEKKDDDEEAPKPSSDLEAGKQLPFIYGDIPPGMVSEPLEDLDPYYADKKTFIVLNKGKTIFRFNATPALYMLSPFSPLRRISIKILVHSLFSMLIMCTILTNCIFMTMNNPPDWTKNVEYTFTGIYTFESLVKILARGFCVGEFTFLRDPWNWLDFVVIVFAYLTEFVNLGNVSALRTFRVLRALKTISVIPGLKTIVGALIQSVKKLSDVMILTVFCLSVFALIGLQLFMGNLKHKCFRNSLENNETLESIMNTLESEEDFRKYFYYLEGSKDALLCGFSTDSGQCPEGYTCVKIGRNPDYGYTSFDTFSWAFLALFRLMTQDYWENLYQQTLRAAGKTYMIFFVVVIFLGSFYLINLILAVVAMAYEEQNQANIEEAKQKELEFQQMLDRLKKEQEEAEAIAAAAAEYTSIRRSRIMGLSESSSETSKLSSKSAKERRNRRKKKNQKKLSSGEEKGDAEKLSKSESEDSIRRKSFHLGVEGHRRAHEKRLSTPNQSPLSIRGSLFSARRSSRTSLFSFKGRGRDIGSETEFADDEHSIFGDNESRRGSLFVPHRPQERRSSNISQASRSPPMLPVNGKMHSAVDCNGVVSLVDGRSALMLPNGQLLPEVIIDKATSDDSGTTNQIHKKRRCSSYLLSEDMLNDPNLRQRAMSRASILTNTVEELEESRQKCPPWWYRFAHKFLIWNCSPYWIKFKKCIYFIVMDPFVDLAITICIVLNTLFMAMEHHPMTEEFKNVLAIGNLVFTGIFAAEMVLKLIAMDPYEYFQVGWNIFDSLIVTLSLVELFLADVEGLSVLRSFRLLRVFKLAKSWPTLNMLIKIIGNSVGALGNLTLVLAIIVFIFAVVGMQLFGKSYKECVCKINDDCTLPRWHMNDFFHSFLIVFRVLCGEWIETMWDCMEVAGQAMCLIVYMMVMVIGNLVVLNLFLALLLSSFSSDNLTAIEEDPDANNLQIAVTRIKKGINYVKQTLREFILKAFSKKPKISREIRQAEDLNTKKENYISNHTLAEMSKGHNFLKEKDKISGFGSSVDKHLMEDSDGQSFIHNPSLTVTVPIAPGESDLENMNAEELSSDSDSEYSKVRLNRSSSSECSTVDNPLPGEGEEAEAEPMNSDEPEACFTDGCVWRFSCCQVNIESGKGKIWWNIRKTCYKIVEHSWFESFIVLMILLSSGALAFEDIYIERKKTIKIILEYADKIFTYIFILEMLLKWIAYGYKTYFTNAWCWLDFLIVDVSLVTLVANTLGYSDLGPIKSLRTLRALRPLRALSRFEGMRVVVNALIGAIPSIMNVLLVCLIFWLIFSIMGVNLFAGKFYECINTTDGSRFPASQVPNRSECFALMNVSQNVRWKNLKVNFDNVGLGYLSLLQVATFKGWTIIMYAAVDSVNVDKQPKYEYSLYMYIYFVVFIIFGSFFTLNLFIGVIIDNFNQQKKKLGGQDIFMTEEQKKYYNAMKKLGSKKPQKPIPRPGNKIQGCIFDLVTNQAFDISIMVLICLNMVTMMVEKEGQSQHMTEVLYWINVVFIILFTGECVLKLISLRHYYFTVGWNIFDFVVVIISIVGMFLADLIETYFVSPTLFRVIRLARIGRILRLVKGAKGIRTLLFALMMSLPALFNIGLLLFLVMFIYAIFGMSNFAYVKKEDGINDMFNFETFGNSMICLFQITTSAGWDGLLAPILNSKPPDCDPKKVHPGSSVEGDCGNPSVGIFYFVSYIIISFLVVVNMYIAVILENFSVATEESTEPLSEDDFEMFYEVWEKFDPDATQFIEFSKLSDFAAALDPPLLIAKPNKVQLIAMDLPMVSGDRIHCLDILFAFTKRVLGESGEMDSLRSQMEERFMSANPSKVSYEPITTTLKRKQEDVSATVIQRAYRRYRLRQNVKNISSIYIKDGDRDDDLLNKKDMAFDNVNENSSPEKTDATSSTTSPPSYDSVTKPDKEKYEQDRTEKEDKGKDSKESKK
The subject of data set [12] is TTX-sensitive Nav channels in Sprague Dawley rat DRG neuron.
In data set [13] the target is hNav1.4 (Homo sapiens, UniProt P35499). The experiment in a line: cell-based. Type of data set: cell-based. The following applies: PX.
Data set [14] has as its system male CD-1 mice.
The conditions of data set [15]: human plasma, 37° C., incubation 0 hr (normalisation point).
A short description of data set [16]: in vivo. As to conditions: male, CD-1, mouse, sc.
The conditions of data set [17]: 1 mg/kg s.c.
Data set [18] deals with hNav1.6 (Homo sapiens, UniProt Q9UQD0). The experiment in a line: cell-based. In kind it is cell-based.
hNav1.6, sequence (Q9UQD0 whole entry): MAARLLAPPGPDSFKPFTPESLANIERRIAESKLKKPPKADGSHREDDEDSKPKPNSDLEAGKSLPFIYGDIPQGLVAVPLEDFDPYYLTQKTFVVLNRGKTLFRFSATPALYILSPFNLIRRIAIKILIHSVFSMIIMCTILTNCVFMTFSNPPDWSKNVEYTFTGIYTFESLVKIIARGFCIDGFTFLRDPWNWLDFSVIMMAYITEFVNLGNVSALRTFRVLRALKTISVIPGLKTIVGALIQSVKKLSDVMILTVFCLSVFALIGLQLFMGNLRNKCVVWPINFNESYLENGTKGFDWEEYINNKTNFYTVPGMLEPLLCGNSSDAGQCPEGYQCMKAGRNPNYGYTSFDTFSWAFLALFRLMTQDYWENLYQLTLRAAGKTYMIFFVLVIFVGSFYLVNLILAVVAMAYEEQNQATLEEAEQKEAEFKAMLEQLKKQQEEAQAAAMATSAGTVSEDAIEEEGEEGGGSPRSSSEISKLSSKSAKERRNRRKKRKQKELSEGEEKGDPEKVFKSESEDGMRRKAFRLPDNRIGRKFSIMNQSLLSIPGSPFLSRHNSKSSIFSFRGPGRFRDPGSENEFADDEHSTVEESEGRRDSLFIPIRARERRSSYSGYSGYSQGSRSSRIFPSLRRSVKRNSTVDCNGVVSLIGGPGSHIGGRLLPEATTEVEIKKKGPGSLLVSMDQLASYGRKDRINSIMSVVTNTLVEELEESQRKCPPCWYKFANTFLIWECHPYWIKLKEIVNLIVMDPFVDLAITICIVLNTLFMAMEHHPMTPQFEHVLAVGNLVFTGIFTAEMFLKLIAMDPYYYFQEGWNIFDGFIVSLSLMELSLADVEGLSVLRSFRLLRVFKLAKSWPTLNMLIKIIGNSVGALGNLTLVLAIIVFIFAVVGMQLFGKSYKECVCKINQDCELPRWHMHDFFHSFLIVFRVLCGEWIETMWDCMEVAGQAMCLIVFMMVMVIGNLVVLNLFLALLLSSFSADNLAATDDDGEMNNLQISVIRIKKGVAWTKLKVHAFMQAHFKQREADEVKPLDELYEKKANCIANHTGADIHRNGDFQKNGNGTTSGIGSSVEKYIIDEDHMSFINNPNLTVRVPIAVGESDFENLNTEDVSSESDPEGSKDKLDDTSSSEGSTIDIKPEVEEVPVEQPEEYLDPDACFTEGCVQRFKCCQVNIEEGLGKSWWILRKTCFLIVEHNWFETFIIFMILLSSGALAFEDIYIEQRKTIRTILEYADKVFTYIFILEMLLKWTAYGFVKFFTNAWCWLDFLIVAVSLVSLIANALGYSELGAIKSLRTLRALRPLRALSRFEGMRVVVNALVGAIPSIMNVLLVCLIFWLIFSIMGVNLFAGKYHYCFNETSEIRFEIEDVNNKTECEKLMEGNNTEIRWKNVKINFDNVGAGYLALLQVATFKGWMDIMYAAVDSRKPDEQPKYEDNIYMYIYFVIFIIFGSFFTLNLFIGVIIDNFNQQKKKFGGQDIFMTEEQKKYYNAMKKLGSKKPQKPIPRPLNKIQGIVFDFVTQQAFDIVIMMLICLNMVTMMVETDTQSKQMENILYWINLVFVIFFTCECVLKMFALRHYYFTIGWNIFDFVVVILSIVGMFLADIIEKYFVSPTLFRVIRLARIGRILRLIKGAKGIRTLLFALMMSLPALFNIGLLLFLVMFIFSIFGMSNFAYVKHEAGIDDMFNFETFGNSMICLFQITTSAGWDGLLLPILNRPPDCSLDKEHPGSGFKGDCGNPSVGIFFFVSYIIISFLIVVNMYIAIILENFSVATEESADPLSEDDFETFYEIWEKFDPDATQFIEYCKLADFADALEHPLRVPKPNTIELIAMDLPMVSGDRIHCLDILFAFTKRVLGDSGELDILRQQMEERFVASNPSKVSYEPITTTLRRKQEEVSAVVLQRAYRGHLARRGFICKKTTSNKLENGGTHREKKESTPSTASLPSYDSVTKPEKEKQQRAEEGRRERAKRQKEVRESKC
Data set [19] concerns the target T1, hNav1.7. Kind of data set: cell-based. The following applies: ratio of IonWorks Quattro IC50 values, Nav1.4 over Nav1.7. A general note: In patch-clamp work, channel activity is measured electrically.
Data set [20] has as its system male Sprague-Dawley rats. As to conditions: 5.0 mg/kg s.c.
The test system of data set [21] is male CD-1 mice. As to conditions: 5.0 mg/kg s.c.
The nature of data set [22]: in vivo. The following applies: male, Sprague-Dawley, rat, sc, 5 mg/kg.
The subject of data set [23] is male CD-1 mice. As to conditions: for terminal exposure (peptide plasma concentration): 2 h post peptide injection.
The target of data set [24] is T1, hNav1.7. The experiment in a line: cell-based. In kind it is cell-based.
Data set [25] deals with male Sprague-Dawley rats. The following applies: 5.0 mg/kg s.c.; 2 h post peptide injection.
For data set [26], the system named is TTX-sensitive sodium currents in adult rat DRG neurons. As to conditions: cited from earlier work.
Data set [27] deals with TTX-resistant VGSCs. The following applies: cited from earlier work.
The target of data set [28] is NaV1.7 (Homo sapiens, UniProt Q15858). The following applies: read-out: EC50, impairs fast inactivation; cited from earlier work.
NaV1.7, sequence (Q15858 whole entry): as the sequence (Q15858 whole entry) above
Data set [29] concerns rats. The following applies: rat, in vivo; cited from earlier work.
In data set [30] the test system is rats. The following applies: rat, in vivo, 0.1 mg/kg; cited from earlier work.
The mark [31] stands for this setting: 0.1, 0.3, and 1.0 mg/kg s.c., 1-hour pre-treatment.

As to `CC[C@H](C)[C@H](NC(=O)[C@H](CCCCN)NC(=O)[C@H](CCCNC(=N)N)NC(=O)[C@@H]1CSSC[C@@H]2NC(=O)[C@H](C)NC(=O)[C@H](CCCNC(=N)N)NC(=O)[C@H](CCCCN)NC(=O)[C@H](CO)NC(=O)[C@H](CC(=O)O)NC(=O)[C@@H]3CSSC[C@H](NC(=O)[C@H](CCC(=O)O)NC(=O)[C@H](CC(C)C)NC(=O)CNC(=O)[C@H](CCC(=O)O)NC(=O)[C@H](CSSC[C@H](NC(=O)[C@@H](N)Cc4ccc(O)cc4)C(=O)N[C@@H](CCC(N)=O)C(=O)N[C@@H](CCCCN)C(=O)N[C@@H](Cc4c[nH]c5ccccc45)C(=O)N[C@@H](CCSC)C(=O)N[C@@H](Cc4c[nH]c5ccccc45)C(=O)N[C@@H]([C@@H](C)O)C(=O)N3)NC2=O)C(=O)N[C@@H](CCCCN)C(=O)N[C@@H](CC(C)C)C(=O)N[C@@H](Cc2c[nH]c3ccccc23)C(=O)N1)C(=O)N[C@@H](Cc1c[nH]c2ccccc12)C(N)=O` [SEQ ID NO: 112, [Glu20,Trp29]JzTx-V(1-29)], in data set [1], the “% Peptide Remaining” value was determined as 100%.

Take `CC[C@H](C)[C@H](NC(=O)[C@H](CO)NC(=O)[C@H](CCCCN)NC(=O)[C@H](CCCNC(=N)N)NC(=O)[C@@H]1CSSC[C@@H]2NC(=O)[C@H](C)NC(=O)[C@H](CCCNC(=N)N)NC(=O)[C@H](CCCCN)NC(=O)[C@H](CO)NC(=O)[C@H](CC(=O)O)NC(=O)[C@@H]3CSSC[C@H](NC(=O)[C@H](CCC(=O)O)NC(=O)[C@H](CC(C)C)NC(=O)CNC(=O)[C@H](CCC(=O)O)NC(=O)[C@H](CSSC[C@H](NC(=O)[C@@H](N)Cc4ccc(O)cc4)C(=O)N[C@@H](CCC(N)=O)C(=O)N[C@@H](CCCCN)C(=O)N[C@@H](Cc4c[nH]c5ccccc45)C(=O)N[C@@H](CCSC)C(=O)N[C@@H](Cc4c[nH]c5ccccc45)C(=O)N[C@@H]([C@@H](C)O)C(=O)N3)NC2=O)C(=O)N[C@@H](CCCCN)C(=O)N[C@@H](CC(C)C)C(=O)N[C@@H](Cc2c[nH]c3ccccc23)C(=O)N1)C(N)=O` [SEQ ID NO: 138, [Glu20,Ser28]JzTx-V(1-29)]: the “% Peptide Remaining” value in data set [1] is 100%.

Broadly, the IC50 is the midpoint of a concentration-inhibition curve. Consider `NC1=N[C@H](O)[C@H]2[C@H]3O[C@]4(O)O[C@@H]([C@@H](O)[C@@]2(N1)[C@@H]4O)[C@]3(O)CO` [TTX, tetrodotoxin], for which the “action potential firing, in words” value in data set [2] is listed as “completely blocked action potential firing”. Besides, the IC50 in data set [3] was 4 nM; in [4] it was 1 nM; in [5], 5 nM; in data set [6], 2 to 15 nM; in [7] it was greater than 50000 nM.

Turning to `CC[C@H](C)[C@H](NC(=O)[C@H](CCCCN)NC(=O)[C@H](CCCNC(=N)N)NC(=O)[C@@H]1CSSC[C@@H]2NC(=O)[C@H](C)NC(=O)[C@H](CCCNC(=N)N)NC(=O)[C@H](CCCCN)NC(=O)[C@H](CO)NC(=O)[C@H](CC(=O)O)NC(=O)[C@@H]3CSSC[C@H](NC(=O)[C@H](CCC(=O)O)NC(=O)[C@H](CC(C)C)NC(=O)CNC(=O)[C@H](CCC(=O)O)NC(=O)[C@H](CSSC[C@H](NC(=O)[C@@H](N)Cc4ccc(O)cc4)C(=O)N[C@@H](CCC(N)=O)C(=O)N[C@@H](CCCCN)C(=O)N[C@@H](Cc4c[nH]c5ccccc45)C(=O)N[C@@H](CCSC)C(=O)N[C@@H](Cc4c[nH]c5ccccc45)C(=O)N[C@@H]([C@@H](C)O)C(=O)N3)NC2=O)C(=O)N[C@@H](CCCCN)C(=O)N[C@@H](CC(C)C)C(=O)N[C@@H](Cc2c[nH]c3ccccc23)C(=O)N1)C(=O)N[C@@H](Cc1c[nH]c2ccccc12)C(N)=O` [compound 112], the 1.x/1.7 in [8] is reported as 1213; in [8] (partially inactivated, mTTX-S (fresh DRG) / hNav1.7) it was 917; in [12] (partially inactivated, rTTX-S / hNav1.7) it was 1135; in data set [24] (partially inactivated, hNav1.7 / hNav1.7), 1. In addition, in data set [8] (TTX-sensitive current), the “loss in potency in mouse DRG neurons relative to the human clone of Nav1.7” value is reported as roughly 1000 fold. The “% Peptide Remaining” value in data set [9], in [10] and in [15] was 100% in each case. Moreover, the IC50 came out at 1.59 nM in data set [11]; 261 nM in data set [12]; 720 nM in data set [18] (Table 15, read-out: PX hNav1.6 Tonic IC50). For the same compound, the “selectivity against hNav1.4 relative to hNav1.7” value in data set [13] was greater than 1000 fold. Moreover, the terminal plasma exposure stood at 0.0278 ± 0.0105 µM in data set [14] (0.1 mg/kg s.c., 45 min post-formalin injection, mean±SEM); 0.121 ± 0.0411 µM in data set [14] (0.3 mg/kg s.c., 45 min post-formalin injection); 0.412 ± 0.0858 µM in data set [14] (1.0 mg/kg s.c., 45 min post-formalin injection); 2.63 ± 0.777 µM in data set [14] (5.0 mg/kg s.c., 45 min post formalin injection); 1.18 ± 0.156 µM in data set [20] (45 min post-formalin injection); 1.75 ± 0.536 µM in [21] (2 h post peptide injection). Also, in data set [14] (1 mg/kg s.c., 1-hour pre-treatment), the “pain response relative to the vehicle, first phase” value is listed as “may have slightly increased the pain response”. Besides, in data set [14] (5.0 mg/kg s.c.), the “plasma concentration over the IC50 for blocking TTX-S current in mouse DRG neurons (WCPC)” value is listed as “about 10 fold”. Moreover, the level at time molar at 2 h amounted to 24.8 ± 6.68 nM in data set [16] (0.1 mg/kg), 121 ± 29.6 nM in data set [16] (0.3 mg/kg), 419 ± 226 nM in data set [16] (1 mg/kg) and 994 ± 184 nM in data set [22]. In addition, in [17] (CD-1 mice, for 3 h), the “plasma concentration over the in vitro hNav1.7 IC50 (PX)” value is 26 fold. In addition, the tolerability result in data set [17] (mice) was “tolerated”. Also, the “selectivity for Nav1.7 over Nav1.6” value in data set [18] (PatchXpress) turned out to be 454 fold. Besides, the Nav1.6/Nav1.7 in data set [18] (Table 15, ratio of PX tonic IC50 values) was 454. The Nav1.4/Nav1.7 in data set [19] is listed as 178. Further, the “effect in the first or acute phase (0-5 min)” value in data set [20] (1-hour pre-treatment, male Sprague-Dawley rats) is “no effect”. Further, the “thermal latency compared to vehicle (PBS)” value in data set [21] (CFA thermal hyperalgesia, male CD-1 mice) is given as “no effect”. For the same compound, the “terminal exposure (peptide plasma concentration)” value in data set [23] (0.1 mg/kg s.c.) is 0.0248 ± 0.00668 µM; in data set [23] (0.3 mg/kg s.c.), 0.121 ± 0.0296 µM; in data set [23] (1.0 mg/kg s.c.) it was 0.419 ± 0.226 µM; in data set [23] (5.0 mg/kg s.c.), 4.73 ± 0.584 µM; in data set [25], 0.994 ± 0.184 µM. In addition, the “total basic movement component of locomotor activity” value in [23] (setting [31]) was “No doses of peptide significantly decreased exploratory behavior”. In addition, in [23] (setting [31]), the “total rearing component of locomotor activity” value was “No doses of peptide significantly decreased exploratory behavior”. The “total basic movement, total fine movement, total rearing, or total time rearing” value in data set [23] (0.1, 0.3, or 1.0 mg/kg s.c., 1-hour pre-treatment) was “no effect”. The “block of hNav1.7 current” value in [24] (100 nM) is given as “approximately 80%”. For the same compound, the “block of hNav1.7 current, in words” value in data set [24] (100 nM) was “did not completely block Nav1.7 current; also recorded: only partial inhibition”.

On to Huwentoxin-IV [HWTX-IV], for which the IC50 in data set [26] is 30 nM. Further, the “effect on TTX-resistant VGSCs” value in data set [27] was “no effect”.

A word on the EC50: it is the concentration at which the effect is half-maximal. Take OD1 [OD 1]: the EC50 in data set [28] is 4.5 nM.

With “YCQKWMWTCDSERKCCEGMVCRLWCKKKLW [ProTx-II]”, the “efficacy in mechanical hyperalgesia study” value in data set [29] is recorded as “not efficacious”. Besides, the tolerability result in data set [30] was “lethal”.
